In patent US12612388B2, “Receptor-interacting protein 1 inhibitors including piperazine heterocyclic amide ureas” (SIRONAX LTD., priority 2020, dated 2026):

System: HT-29 cells
Assay: Cellular RIP1 inhibitory activity: necroptosis of HT-29 cells induced by TNF-α/SMAC mimetic/zVAD-FMK, CellTiter-Glo viability
Assay type: cell-based
Conditions: Homo sapiens; HT-29 cells; TNF-α 10 ng/ml, SMAC mimetic 6 μM, zVAD-FMK 10 μM; 20 hours; geometric mean, 10 points, duplicates; read-out: EC50 (Cell activity; Necrosis or Necroptosis Inhibitory Activity)
Description: In Table 2, activity is provided as follows: +++=0.1 nM≤EC50<100 nM; ++=100 nM≤EC50K<1000 nM; +=1000 nM≤EC50K<10000 nM.
Compounds 1-67 (denoted as Compound Nos. 1 through 67 in Table 1) of the disclosure were tested for binding and cellular RIP1 inhibitory activity following the experimental procedures described below.
Cell line: HT-29 (ATCC® HTB-38™)
Culture medium: McCOY's 5A, Gibco, Cat No. 16600-082
DMSO: Sigma, Cat No. 67-68-5, 1 L
Assay plate: Corning #3903
Compound dilution plate: Corning #3357
Inducers: TNFα, GenScript, Cat No. Z01001-50,
SmacM, Cat. No., HY-15989, MedChemExpress (MCE)
Z_VAD FMK, TargetMol, T6013
Cell Titer-Glo® Luminescent Cell Viability Assay Kit: Promega, Cat No. G7573
1. HT-29 cells were checked every day to make sure that they were healthy and growing as expected. They were subjected to sub-culturing when they were approximately 80% confluent.
2. The culture medium, McCOY's 5A medium (Gibco, Cat No. 16600-082) with 10% fetal bovine serum or FBS (Gibco, Cat No. 10099-141C), was pre-warmed in a 37° C. water bath for at least 30 min.
3. When the cells had reached a desired level of confluency of 80% in a T75 flask, the medium was aspirated, and the cells were washed with warm phosphate buffered saline or PBS two times.
4. 2-3 ml fresh warm trypsin (Gibco, Cat No. 25200-056) solution was added to the washed cells. The flask with the cells was transferred to a 37° C. incubator.
5. After 5 minutes, the side of the flask was tapped, and the flask was examined under a microscope for detachment of the cells to the flask. If necessary, the cells were kept in the incubator for an additional 5-10 minutes, with occasional tapping, until lifting was complete.
6. The trypsin reaction was neutralized by transferring 6-9 ml cell culture medium to sterile 15 ml conical tubes, and by centrifuging the cell culture at 300×g for 7 minutes to pellet the cells (supernatant decanted).
7. The cells were resuspended in fresh cell culture medium and the cell counting was performed using a hemocytometer.
8. 100 μl of the resuspended cell culture medium containing ˜5,000 cells were transferred into each well of the sterile 96-well cell culture plate (Corning 3903) and cultured overnight at 37° C. with 5% CO2.
Compound Titration and Treatment
1. All test compounds were dissolved in DMSO (Dimethyl sulfoxide) to create a 20 mM stock.
2. 3 μl of each compound 20 mM stock was mixed with 27 μl DMSO, and the compound solution was further diluted at a titration ratio of 1:3 (20 μl compound solution+40 μl DMSO) till the 10 points end.
3. All culture medium was removed from assay plates filled with HT-29 cell cultures. The cells were then washed with 1 PBS, and resuspended in fresh, FBS-free McCOY's 5A medium containing a cocktail of TNF-α (10 ng/ml), a SMAC mimetic compound (6 μM) and Z-VAD-fluoromethylketone or zVAD-FMK (10 μM) to stimulate the HT-29 cells to increase RIP1 kinase levels and necroptosis.
4. 0.5 μL of the diluted compound solution was added to the corresponding 96-well assay plates.
5. The assay plates were incubated for 20 hours at 37° C. with 5% CO2.
1. The CellTiter-Glo® Luminescent Cell Viability Assay was employed to detect the ATP levels of viable HT-29 cells.
2. The CellTiter-Glo® buffer and the lyophilized substrate were equilibrated to room temperature prior to use.
3. The CellTiter-Glo® substrate was resuspended with CellTiter-Glo® buffer, then mixed by gently vortexing to obtain a homogeneous solution.
4. 20 μl the enzyme/substrate mixture was transferred by multi-channel pipetting into 96-well assay plates.
5. The assay plates were placed on an orbital shaker and the contents were shaken for 3 minutes to induce cell lysis.
6. The assay plates were incubated at room temperature for 10 minutes to stabilize the luminescent signal.
7. The luminescence signals were read and recorded with EnVision.
8. The geometric mean EC50 values were calculated from 10 points response dose with duplicates. […]

SMILES	EC50 [nM]
O=C(c1nc(N2CCN(C(=O)N3N=CC[C@H]3c3cc(F)cc(F)c3)CC2)ncc1F)N1CC(F)(F)C1 [Compound 12, (S)-(3,3-difluoroazetidin-1-yl)(2-(4-(5-(3,5-difluorophenyl)-4,5-dihydro-1H-pyrazole-1-carbonyl)piperazin-1-yl)-5-fluoropyrimidin-4-yl)methanone]	0.1 to 100
O=C(c1nc(N2CCN(C(=O)N3N=CC[C@H]3c3cc(F)cc(F)c3)CC2)ncc1F)N1CC(O)C1 [Compound 13, (5-(3,5-difluorophenyl)-4,5-dihydro-1H-pyrazol-1-yl)(4-(5-fluoro-4-(3-hydroxyazetidine-1-carbonyl)pyrimidin-2-yl)piperazin-1-yl)methanone]	0.1 to 100
O=C(c1nc(N2CCN(C(=O)N3N=CC[C@H]3c3cc(F)cc(F)c3)CC2)ncc1F)N1CC2(COC2)C1 [Compound 14, (5-(3,5-difluorophenyl)-4,5-dihydro-1H-pyrazol-1-yl)(4-(5-fluoro-4-(2-oxa-6-azaspiro[3.3]heptane-6-carbonyl)pyrimidin-2-yl)piperazin-1-yl)methanone]	0.1 to 100
N#C[C@H]1CCN(C(=O)c2nc(N3CCN(C(=O)N4N=CC[C@H]4c4cc(F)cc(F)c4)CC3)ncc2F)C1 [Compound 15, (3S)-1-(2-(4-(5-(3,5-difluorophenyl)-4,5-dihydro-1H-pyrazole-1-carbonyl)piperazin-1-yl)-5-fluoropyrimidine-4-carbonyl)pyrrolidine-3-carbonitrile]	0.1 to 100
N#C[C@@H]1CCN(C(=O)c2nc(N3CCN(C(=O)N4N=CC[C@H]4c4cc(F)cc(F)c4)CC3)ncc2F)C1 [Compound 16, (3R)-1-(2-(4-(5-(3,5-difluorophenyl)-4,5-dihydro-1H-pyrazole-1-carbonyl)piperazin-1-yl)-5-fluoropyrimidine-4-carbonyl)pyrrolidine-3-carbonitrile]	0.1 to 100
O=C(c1nc(N2CCN(C(=O)N3N=CC[C@H]3c3cc(F)cc(F)c3)CC2)ncc1F)N1CCCCC1 [Compound 17, (5-(3,5-difluorophenyl)-4,5-dihydro-1H-pyrazol-1-yl)(4-(5-fluoro-4-(piperidine-1-carbonyl)pyrimidin-2-yl)piperazin-1-yl)methanone]	0.1 to 100
O=C(c1nc(N2CCN(C(=O)N3N=CC[C@H]3c3cc(F)cc(F)c3)CC2)ncc1F)N1CCOCC1 [Compound 18, (5-(3,5-difluorophenyl)-4,5-dihydro-1H-pyrazol-1-yl)(4-(5-fluoro-4-(morpholine-4-carbonyl)pyrimidin-2-yl)piperazin-1-yl)methanone]	0.1 to 100
CN1CCN(C(=O)c2nc(N3CCN(C(=O)N4N=CC[C@H]4c4cc(F)cc(F)c4)CC3)ncc2F)CC1 [Compound 19, (5-(3,5-difluorophenyl)-4,5-dihydro-1H-pyrazol-1-yl)(4-(5-fluoro-4-(4-methylpiperazine-1-carbonyl)pyrimidin-2-yl)piperazin-1-yl)methanone]	0.1 to 100
CN(O)C(=O)c1nc(N2CCN(C(=O)N3N=CC[C@H]3c3cc(F)cc(F)c3)CC2)ncc1F [Compound 20, (S)-2-(4-(5-(3,5-difluorophenyl)-4,5-dihydro-1H-pyrazole-1-carbonyl)piperazin-1-yl)-5-fluoro-N-hydroxy-N-methylpyrimidine-4-carboxamide]	0.1 to 100
COC1CN(C(=O)c2nc(N3CCN(C(=O)N4N=CC[C@H]4c4cc(F)cc(F)c4)CC3)ncc2F)C1 [Compound 21, (S)-(5-(3,5-difluorophenyl)-4,5-dihydro-1H-pyrazol-1-yl)(4-(5-fluoro-4-(3-methoxyazetidine-1-carbonyl)pyrimidin-2-yl)piperazin-1-yl)methanone]	0.1 to 100
COC1(C)CN(C(=O)c2nc(N3CCN(C(=O)N4N=CC[C@H]4c4cc(F)cc(F)c4)CC3)ncc2F)C1 [Compound 22, (S)-(5-(3,5-difluorophenyl)-4,5-dihydro-1H-pyrazol-1-yl)(4-(5-fluoro-4-(3-methoxy-3-methylazetidine-1-carbonyl)pyrimidin-2-yl)piperazin-1-yl)methanone]	0.1 to 100
CCOC1CN(C(=O)c2nc(N3CCN(C(=O)N4N=CC[C@H]4c4cc(F)cc(F)c4)CC3)ncc2F)C1 [Compound 23, (S)-(5-(3,5-difluorophenyl)-4,5-dihydro-1H-pyrazol-1-yl)(4-(4-(3-ethoxyazetidine-1-carbonyl)-5-fluoropyrimidin-2-yl)piperazin-1-yl)methanone]	0.1 to 100
CC(C)OC1CN(C(=O)c2nc(N3CCN(C(=O)N4N=CC[C@H]4c4cc(F)cc(F)c4)CC3)ncc2F)C1 [Compound 24, (S)-(5-(3,5-difluorophenyl)-4,5-dihydro-1H-pyrazol-1-yl)(4-(5-fluoro-4-(3-isopropoxyazetidine-1-carbonyl)pyrimidin-2-yl)piperazin-1-yl)methanone]	0.1 to 100
N#CC1CN(C(=O)c2nc(N3CCN(C(=O)N4N=CC[C@H]4c4cc(F)cc(F)c4)CC3)ncc2F)C1 [Compound 25, (S)-1-(2-(4-(5-(3,5-difluorophenyl)-4,5-dihydro-1H-pyrazole-1-carbonyl)piperazin-1-yl)-5-fluoropyrimidine-4-carbonyl)azetidine-3-carbonitrile]	0.1 to 100
NC(=O)[C@H]1CCN(C(=O)c2nc(N3CCN(C(=O)N4N=CC[C@H]4c4cc(F)cc(F)c4)CC3)ncc2F)C1 [Compound 26, (S)-1-(2-(4-((S)-5-(3,5-difluorophenyl)-4,5-dihydro-1H-pyrazole-1-carbonyl)piperazin-1-yl)-5-fluoropyrimidine-4-carbonyl)pyrrolidine-3-carboxamide]	0.1 to 100
NC(=O)[C@@H]1CCN(C(=O)c2nc(N3CCN(C(=O)N4N=CC[C@H]4c4cc(F)cc(F)c4)CC3)ncc2F)C1 [Compound 27, (R)-1-(2-(4-((S)-5-(3,5-difluorophenyl)-4,5-dihydro-1H-pyrazole-1-carbonyl)piperazin-1-yl)-5-fluoropyrimidine-4-carbonyl)pyrrolidine-3-carboxamide]	0.1 to 100
CN(C)CC1CN(C(=O)c2nc(N3CCN(C(=O)N4N=CC[C@H]4c4cc(F)cc(F)c4)CC3)ncc2F)C1 [Compound 28, (S)-(5-(3,5-difluorophenyl)-4,5-dihydro-1H-pyrazol-1-yl)(4-(4-(3-((dimethylamino)methyl)azetidine-1-carbonyl)-5-fluoropyrimidin-2-yl)piperazin-1-yl) methanone]	0.1 to 100
O=C(c1nc(N2CCN(C(=O)N3N=CC[C@H]3c3cc(F)cc(F)c3)CC2)ncc1F)N1CC2(CCC2)C1 [Compound 29, (S)-(5-(3,5-difluorophenyl)-4,5-dihydro-1H-pyrazol-1-yl)(4-(5-fluoro-4-(2-azaspiro[3.3]heptane-2-carbonyl)pyrimidin-2-yl)piperazin-1-yl)methanone]	0.1 to 100
NC(=O)C1CN(C(=O)c2nc(N3CCN(C(=O)N4N=CC[C@H]4c4cc(F)cc(F)c4)CC3)ncc2F)C1 [Compound 30, (S)-1-(2-(4-(5-(3,5-difluorophenyl)-4,5-dihydro-1H-pyrazole-1-carbonyl)piperazin-1-yl)-5-fluoropyrimidine-4-carbonyl)azetidine-3-carboxamide]	0.1 to 100
CN(C)[C@H]1CCN(C(=O)c2nc(N3CCN(C(=O)N4N=CC[C@H]4c4cc(F)cc(F)c4)CC3)ncc2F)C1 [Compound 31, ((S)-5-(3,5-difluorophenyl)-4,5-dihydro-1H-pyrazol-1-yl)(4-(4-((S)-3-(dimethylamino)pyrrolidine-1-carbonyl)-5-fluoropyrimidin-2-yl)piperazin-1-yl)methanone]	0.1 to 100
